Measured values as given in patent EP1769677B1, “METHOD OF IDENTIFYING THERAPEUTIC COMPOUNDS WHICH CAN BE USED FOR THE TREATMENT AND/OR PREVENTION OF INFECTIONS AND DISEASES CAUSED BY HUMAN HERPESVIRUSES” (Universidad Aut Noma de Madrid, priority 2004, dated 2005).

Legend:
[1] = system: herpes simplex virus type 1 (HSV-1) of the KOS strain; test: Viral load in organs of mothers and progeny by quantitative PCR after acyclovir treatment of infected mothers; format: in vivo, mice
Method: All the animals included in the experimental process were 14-week old female mice of the C57Bl/6 lineage. Between two and three adult mice were used per analysis group and between 13 and 25 neonates, depending on the availability of animals. […] All the animals went through a quarantine period and were treated with strict precautions against contamination during inoculation and dissection. The animals were intraperitoneally infected with a dose 10^6 pfu of herpes simplex virus type 1 (HSV-1) of the KOS strain (provided by el Dr. L. Carrasco, Centro de Biologia Molecular Severo Ochoa, Universidad Autónoma of Madrid). […] The first group of mice was not given any treatment. […] Therefore the antiviral concentration administered per dose and mouse was 0.25 mg (10 mg/kg per mouse, far from the toxicity limit of 80 mg/kg cited above), with a total daily dose of 0.75 mg/day.
The dissected organs in the adult animals were the following: blood, ovaries, adrenal gland, spinal cord, brain, cerebellum and trigeminal ganglia. The entire brain was separated into three rough regions: midbrain, ventricles and cerebral cortex. In the neonates, the dissected organs were blood, spinal cord and encephalon. DNA was extracted using conventional methods (NucleoSpin®, Cat. K3053-2, ClonTech, USA). The viral load of the different organs was analyzed by means of quantitative PCR. […] Primers specific for the sequence of the viral polymerase (pol) gene were used to detect the virus (SEQ. ID. NO: 3 and SEQ. ID. NO: 4) (120 bp amplicon). The PCR conditions were one cycle of 95°C for 10 minutes, followed by 45 cycles at 95°C for 30 seconds, 55°C (for β-actin) or 60°C (for viral polymerase) for 30 seconds, and a last cycle of 72°C for 40 seconds. The virus concentration range used for optimizing the quantitative PCR standard curve was expressed as plaque forming units (pfu). For calibrating the β-actin gene, nanograms were used as the unit of this endogenous gene. The identity of the amplified products was checked by analysis of the denaturation curves, by gel electrophoresis and restriction analysis.

[2] = system: herpes simplex virus type 1 (HSV-1) of the KOS strain; test: Neonate mortality after acyclovir treatment of HSV-1 infected mothers (vertical mother-progeny transmission model); format: in vivo, mice; conditions: neonates of HSV-1 infected mothers, 0.25 mg per dose three times a day, from five days before crossbreeding until birth
Method: All the animals included in the experimental process were 14-week old female mice of the C57Bl/6 lineage. Between two and three adult mice were used per analysis group and between 13 and 25 neonates, depending on the availability of animals. The experiments were performed strictly following the Guidance on the Operation of Animals (Scientific Procedures, Act 1986), supervised by personnel of the Animal house of the Centro de Biologia Molecular Severo Ochoa. All the animals went through a quarantine period and were treated with strict precautions against contamination during inoculation and dissection. The animals were intraperitoneally infected with a dose 10^6 pfu of herpes simplex virus type 1 (HSV-1) of the KOS strain (provided by el Dr. L. Carrasco, Centro de Biologia Molecular Severo Ochoa, Universidad Autónoma of Madrid). […] The first group of mice was not given any treatment. […] Therefore the antiviral concentration administered per dose and mouse was 0.25 mg (10 mg/kg per mouse, far from the toxicity limit of 80 mg/kg cited above), with a total daily dose of 0.75 mg/day.
After birth and sacrifice, the progeny survival rates and the mother and neonate viral loads were analyzed. The adult animals remained asymptomatic during the entire experimental process, suffering no mortality.

[3] = system: human herpesviruses; test: Survival with acyclovir given ad libitum in the drink (vertical transmission model); format: in vivo, mice; conditions: acyclovir ad libitum in drinking water, high dose (as printed, final daily dose 1.50 mg), from the day of the vaginal plug
Method: Assuming that a mouse drinks about 3 ml a day, 2 working dilutions ([…] so that the final daily dose was 0.75 mg, and […] so that the final daily dose was 1.50 mg) were used.

[4] = in vivo; cited from earlier work
[5] = oral acyclovir, daily dose 0.75 mg

Nc1nc2c(ncn2COCCO)c(=O)[nH]1 [acyclovir]
viral loads both in the mothers and in the progeny ([1]; acyclovir daily dose of 0.75 mg, both administration routes (oral and subcutaneous), Figure 7): significant reduction | viral levels in all the analyzed organs of the descendants ([1]; oral acyclovir to the mothers, daily dose 0.75 mg, blood, spinal cord, encephalon): almost complete elimination | virus levels in blood of the mothers [1, 5]: virtually undetectable | virus levels in the trigeminal ganglia of the mothers [1, 5]: virtually undetectable | levels of the virus in the progeny's CNS ([1]; subcutaneous acyclovir to mothers, daily dose 0.75 mg, Figure 7B): considerably lower levels of the virus | levels of the virus in all the analyzed organs of the mother ([1]; subcutaneous acyclovir, daily dose 0.75 mg, Figure 7A): considerably lower levels of the virus | mortality ([2]; oral acyclovir to mothers, none of the 17 animals): no mortality was observed | mortality rate ([2]; subcutaneous acyclovir to mothers, 1 out of 25): 4.0% | survival of the animals [3]: higher | toxicity limit [4]: 80 mg/kg
